ChEMBL document CHEMBL4229336, “Identification of (1S,4S)-2,5-diazabicyclo[2.2.1]heptane-dithiocarbamate-nitrostyrene hybrid as potent antiproliferative and apoptotic inducing agent against cervical cancer cell lines” (Eur J Med Chem, 2018)
The source made the active and inactive calls. No cut-off for these calls is given here.

Columns and labels:
HeLa [1] = assay: Antiproliferative activity against human HeLa cells after 24 hrs by crystal violet staining-based assay; format: functional, cell-based
[2] = Cytotoxicity against human ViBo cells assessed as induction of necrosis at antiproliferative IC50 after 24 hrs by LDH release assay relative to control; format: cell-based
[3] = Induction of apoptosis in human ViBo cells assessed as caspase3 activity at antiproliferative IC50 after 24 hrs by FITC staining-based FACS analysis (reference value: 5%); format: functional
Ca-Ski [4] = assay: Induction of apoptosis in human CaSki cells assessed as caspase3 activity at antiproliferative IC50 after 24 hrs by FITC staining-based FACS analysis (reference value: 5%); format: functional
HeLa [5] = assay: Induction of apoptosis in human HeLa cells assessed as caspase3 activity at antiproliferative IC50 after 24 hrs by FITC staining-based FACS analysis (reference value: 3%); format: functional
Ca-Ski [6] = assay: Cytotoxicity against human CaSki cells assessed as induction of necrosis at antiproliferative IC50 after 24 hrs by LDH release assay relative to control; format: cell-based
Ca-Ski [7] = assay: Antiproliferative activity against human CaSki cells after 24 hrs by crystal violet staining-based assay; format: functional, cell-based
HeLa [8] = assay: Cytotoxicity against human HeLa cells assessed as induction of necrosis at antiproliferative IC50 after 24 hrs by LDH release assay relative to control; format: cell-based
[9] = (§1) Antiproliferative activity against human ViBo cells after 24 hrs by crystal violet staining-based assay; format: functional, cell-based
Homo sapiens [10] = species: Homo sapiens; assay: as §1; format: functional, cell-based
Lymphocyte [11] = assay: Induction of cell proliferation of enriched human lymphocytes assessed as cell proliferation level at 2.36 uM after 72 hrs by CFSE staining-based flow cytometric analysis (reference value: 73.36%)
Ca-Ski [12] = assay: Induction of apoptosis in human CaSki cells assessed as formation of apoptotic bodies at antiproliferative IC50 by DAPI staining-based epifluorescence microscopic analysis; format: functional, cell-based
Lymphocyte [13] = assay: Cytotoxicity in enriched human lymphocytes assessed as induction of necrosis by measuring LDH release at 0.73 uM after 72 hrs by LDH release assay; format: cell-based
Homo sapiens [14] = species: Homo sapiens; assay: Induction of apoptosis in human ViBo cells assessed as formation of apoptotic bodies at antiproliferative IC50 by DAPI staining-based epifluorescence microscopic analysis; format: functional, cell-based
[15] = Cell cycle analysis in human ViBo cells assessed as accumulation of cells at G2/M phase at antiproliferative IC50 after 24 hrs by propidium iodide staining-based flow cytometric analysis (reference value: 16.20%); format: functional
Ca-Ski [16] = assay: Cell cycle analysis in human CaSki cells assessed as accumulation of cells at S phase at antiproliferative IC50 after 24 hrs by propidium iodide staining-based flow cytometric analysis (reference value: 10.12%); format: functional
HeLa [17] = assay: Cell cycle analysis in human HeLa cells assessed as accumulation of cells at G1 phase at antiproliferative IC50 after 24 hrs by propidium iodide staining-based flow cytometric analysis (reference value: 69.25%); format: functional
HeLa [18] = assay: Induction of apoptosis in human HeLa cells assessed as caspase3 activation at antiproliferative IC50 after 24 hrs by FITC/DAPI staining-based fluorescence microscopic analysis; format: functional, cell-based
Ca-Ski [19] = assay: Induction of apoptosis in human CaSki cells assessed as chromatin condensation at antiproliferative IC50 by DAPI staining-based epifluorescence microscopic analysis; format: functional, cell-based
[20] = Cell cycle analysis in human ViBo cells assessed as accumulation of cells at G1 phase at antiproliferative IC50 after 24 hrs by propidium iodide staining-based flow cytometric analysis (reference value: 66.69%); format: functional
Ca-Ski [21] = assay: Cell cycle analysis in human CaSki cells assessed as accumulation of cells at G1 phase at antiproliferative IC50 after 24 hrs by propidium iodide staining-based flow cytometric analysis (reference value: 69.31%); format: functional
Homo sapiens [22] = species: Homo sapiens; assay: Induction of apoptosis in human ViBo cells assessed as chromatin condensation at antiproliferative IC50 by DAPI staining-based epifluorescence microscopic analysis; format: functional, cell-based
[23] = Cell cycle analysis in human ViBo cells assessed as accumulation of cells at S phase at antiproliferative IC50 after 24 hrs by propidium iodide staining-based flow cytometric analysis (reference value: 11.67%); format: functional
Ca-Ski [24] = assay: Induction of apoptosis in human CaSki cells assessed as caspase3 activation at antiproliferative IC50 after 24 hrs by FITC/DAPI staining-based fluorescence microscopic analysis; format: functional, cell-based
Ca-Ski [25] = assay: Cell cycle analysis in human CaSki cells assessed as accumulation of cells at G2/M phase at antiproliferative IC50 after 24 hrs by propidium iodide staining-based flow cytometric analysis (reference value: 16.59%); format: functional
Lymphocyte [26] = assay: Cytotoxicity in enriched human lymphocytes assessed as induction of necrosis by measuring LDH release at 2.36 uM after 72 hrs by LDH release assay; format: cell-based
Lymphocyte [27] = assay: Induction of cell proliferation of enriched human lymphocytes assessed as cell proliferation level at 0.73 uM after 72 hrs by CFSE staining-based flow cytometric analysis (reference value: 73.36%)
Lymphocyte [28] = assay: Induction of cell proliferation of enriched human lymphocytes assessed as cell proliferation level at 0.99 uM after 72 hrs by CFSE staining-based flow cytometric analysis (reference value: 73.36%)
HeLa [29] = assay: Cell cycle analysis in human HeLa cells assessed as accumulation of cells at G2/M phase at antiproliferative IC50 after 24 hrs by propidium iodide staining-based flow cytometric analysis (reference value: 17.19%); format: functional
HeLa [30] = assay: Cell cycle analysis in human HeLa cells assessed as accumulation of cells at S phase at antiproliferative IC50 after 24 hrs by propidium iodide staining-based flow cytometric analysis (reference value: 10.37%); format: functional
HeLa [31] = assay: Induction of apoptosis in human HeLa cells assessed as formation of apoptotic bodies at antiproliferative IC50 by DAPI staining-based epifluorescence microscopic analysis; format: functional, cell-based
HeLa [32] = assay: Induction of apoptosis in human HeLa cells assessed as chromatin condensation at antiproliferative IC50 by DAPI staining-based epifluorescence microscopic analysis; format: functional, cell-based
Homo sapiens [33] = species: Homo sapiens; assay: Induction of apoptosis in human ViBo cells assessed as caspase3 activation at antiproliferative IC50 after 24 hrs by FITC/DAPI staining-based fluorescence microscopic analysis; format: functional, cell-based
Lymphocyte [34] = assay: Cytotoxicity in enriched human lymphocytes assessed as induction of necrosis by measuring LDH release at 0.99 uM after 72 hrs by LDH release assay; format: cell-based

`CC[C@@]1(O)C(=O)OCc2c1cc1n(c2=O)Cc2cc3ccccc3nc2-1` [CAMPTOTHECIN] gave an IC50 (HeLa [1]) of 0.94 µM, an Activity [2] of 0% and an Activity [3] of 48%. It also gave an Activity (Ca-Ski [4]) of 62%, an Activity (HeLa [5]) of 29% and an Activity (Ca-Ski [6]) of 2%. For the same molecule, the IC50 (Ca-Ski [7]) was 1.8 µM, the Activity (HeLa [8]) was 3% and the IC50 [9] was 1920 nM.
With `CC(C)(C)OC(=O)N1C[C@@H]2C[C@H]1CN2C(=S)SC(C[N+](=O)[O-])c1ccc(F)cc1` (stereo partly drawn) the Activity (HeLa [1]) was “Dose-dependent effect”, the IC50 (HeLa [1]) was 7.92 µM and the Activity [2] was 8%. For the same molecule, the Activity (Ca-Ski [6]) was 5%, the Activity (Ca-Ski [7]) was “Dose-dependent effect” and the IC50 (Ca-Ski [7]) was 6.79 µM. The Activity (HeLa [8]) was 2%, the Activity (Homo sapiens [10]) was “Dose-dependent effect” and the IC50 [9] was 6560 nM.
In the case of `CC(C)(C)OC(=O)N1C[C@@H]2C[C@H]1CN2C(=S)SC(C[N+](=O)[O-])c1ccc(Cl)cc1` (stereo partly drawn), the Activity (HeLa [1]) is reported as “Dose-dependent effect”, the IC50 (HeLa [1]) is reported as 5.67 µM and the Activity [2] is reported as 12%. For the same molecule, the Activity (Ca-Ski [6]) was 15%, the Activity (Ca-Ski [7]) was “Dose-dependent effect” and the IC50 (Ca-Ski [7]) was 7.2 µM. For the same molecule, the Activity (HeLa [8]) was 4%, the Activity (Homo sapiens [10]) was “Dose-dependent effect” and the IC50 [9] was 2400 nM.
For `CC(C)(C)OC(=O)N1C[C@@H]2C[C@H]1CN2C(=S)SC(C[N+](=O)[O-])c1ccccc1` (stereo partly drawn), the Activity (Lymphocyte [11]) was 7.44%, the Activity (Ca-Ski [12]) was “Active” and the Activity (Lymphocyte [13]) was “Non-Toxic”. For the same molecule, the Activity (Homo sapiens [14]) was “Active”, the Activity (HeLa [1]) was “Dose-dependent effect” and the IC50 (HeLa [1]) was 0.989 µM. It also gave an Activity [15] of 20.48%, an Activity [2] of 0% and an Activity (Ca-Ski [16]) of 10.49%. The Activity (HeLa [17]) was 70.26%, the Activity (HeLa [18]) was “Active” and the Activity (Ca-Ski [19]) was “Active”. For the same molecule, the Activity [20] was 64.38%, the Activity [3] was 35% and the Activity (Ca-Ski [4]) was 42%. For the same molecule, the Activity (Ca-Ski [21]) was 72.29%, the Activity (Homo sapiens [22]) was “Active” and the Activity [23] was 10.05%. The Activity (Ca-Ski [24]) was “Active”, the Activity (Ca-Ski [25]) was 14.35% and the Activity (Lymphocyte [26]) was “Non-Toxic”. The Activity (HeLa [5]) was 36%, the Activity (Lymphocyte [27]) was 64.02% and the Activity (Lymphocyte [28]) was 62.38%. For the same molecule, the Activity (Ca-Ski [6]) was 2%, the Activity (Ca-Ski [7]) was “Dose-dependent effect” and the IC50 (Ca-Ski [7]) was 2.36 µM. For the same molecule, the Activity (HeLa [29]) was 16.01%, the Activity (HeLa [30]) was 10.68% and the Activity (HeLa [31]) was “Active”. For the same molecule, the Activity (HeLa [32]) was “Active”, the Activity (HeLa [8]) was 3% and the Activity (Homo sapiens [33]) was “Active”. For the same molecule, the Activity (Lymphocyte [34]) was “Non-Toxic”, the Activity (Homo sapiens [10]) was “Dose-dependent effect” and the IC50 [9] was 730 nM.
